# Laboratory results as given in patent publication US9085559B2, “Triazine-aryl-bis-indoles and process for preparation thereof” (COUNCIL OF SCIENTIFIC & INDUSTRIAL RESEARCH, priority 2010, dated 2015).
# Key:
# [1] = system: airway hyperresponsiveness (AHR) in mouse model of asthma; experiment: Airway hyperresponsiveness to methacholine in OVA sensitized and challenged mouse model of asthma; type: in vivo, BALB/c mice
# Protocol: The above protocols described in the present invention can be utilized similarly for the synthesis of numerous analogues of ‘triazine-aryl-bis-indole’ class of novel compounds represented by Formula I. • Scheme V • With reference to FIG. 9, mice were sensitized with ovalbumin (OVA) intraperitonially (i.p.) on days 0, 7 and 14 as shown in scheme V. Sham group mice were sensitized with only alum dissolved in PBS. From day 21 to 30, mice were exposed to aerosol of OVA (3%) inhalation 25 minutes daily in a Plexiglas chamber (20×20×10 cm^3). […]
# Airway responsiveness was measured by barometric plethysmography using whole-body plethysmography (WBP; Buxco, Troy, N.Y.) 12 hours after last saline or ovalbumin challenge. […] Enhanced pause (Penh) to methacholine as measured using barometric plethysmography is a valid indicator of bronchoconstriction in mice and can be used to measure AHR.
# FIG. 3. […] AHR was measured after allergen challenge with increasing concentrations of methacholine and MChPC200 was calculated. […]
# Airway responsiveness was measured by barometric plethysmography using whole-body plethysmography (WBP; Buxco, Troy, N.Y.) 12 hours after last saline or ovalbumin challenge. […]
# rodent = experiment: Prediction of acute oral LD50 from the IC50 by Halle's Registry of cytotoxicity (RC) prediction model; settings: log (LD50)=0.435×log (IC50)+0.625
# Description: FIG. 8. IICT-TA67 is not toxic. To evaluate the cytotoxicity of test chemical (IICT-TA67) BALB/c 3T3 cell line was used for Neutral Red Uptake (NRU) cytotoxicity test. The test result has been used to determine IC50 for IICT-TA67 and acute oral toxicity (LD50) in rodent was predicted.
# Basal cytotoxicity of IICT-TA67 has been performed to measure IC50 and thereafter predict in vivo acute oral LD50 values in rodent by using Halle's Registry of cytotoxicity (RC) prediction model: log (LD50)=0.435×log (IC50)+0.625 (Halle, 1998; Spielmann et al., 1999). Balb/c 3T3 Neutral Red Dye Uptake (NRU) cytotoxicity assay procedure was adopted (Liebsch & Spielmann 1995). In brief 3T3 cell were grown in 96 well microtitre plates and exposed to IICT-TA-67. After 48-hour incubation, the test material was removed and Neutral red (NR) solution was applied to the cells. […] The NRU was determined by using a microtitre plate reader to measure the optical density at 540 nm of the eluted dye in 96 well plate. A calculation of cell viability expressed as NRU was made for each concentration of the test chemical by using the mean NRU of 6 replicate values per test concentration. The cell viability value was compared with the mean NRU of all vehicle control values and relative cell viability was then expressed as percent of untreated vehicle control. […]
# PDE-4 = experiment: Phosphodiesterase 4 assay ([3H]cAMP SPA), enzyme preparation from rat heart; type: biochemical; settings: 0.1-20 μg/ml, compared with rolipram (FIG. 2)
smiles,measurement,setting,value
"COc1ccc(C(c2[nH]c3ccccc3c2CC(=O)O)c2[nH]c3ccccc3c2CC(=O)O)cc1Oc1nc(NC2CC2)nc(NC2CC2)n1 [Compound 7, 2,2′-[2,2′-3-(4,6-bis-cyclopropylamino)-1,3,5-triazin-2-yl-oxy-4-methoxy-phenyl]-methylene-bis-(1H-indole-3,3-diyl)-diacetic acid]",MChPC200,"[1]; OVA/OVA mice, 0.1, 1 and 10 mg/kg orally twice per day, versus OVA/OVA/VEH",significantly attenuated the decrease in MChPC200
same,dose of maximum effect on MChPC200,"[1]; OVA/OVA mice, orally twice per day",0.1 mg/kg
same,predicted acute oral LD50,rodent,430 mg/kg body weight
same,inhibition of PDE4 activity,PDE-4,inhibited PDE4 activity in a dose dependent manner
